Results as given in PubChem BioAssay AID248 (DTP/NCI, 2004).
Where “and” joins values, the source holds several entries; their conditions need not be identical. Equal values may be shown once. Toxic doses and inconclusive results are not listed. Cut-off read from the data, not from the text of the source: active = T/C of 150% or more; inactive = T/C below 125%.

Test system: L1210 leukemia ip in BDF1 mice, survival T/C
Assay: NCI In Vivo Anticancer Drug Screen. Data for tumor model L1210 Leukemia (intraperitoneal) in B6D2F1 (BDF1) mice
Conditions: endpoint: mean survival time, higher = longer survival
Summary of the method: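 Read-out is survival time, reported as the treated-group measurement over the vehicle-control measurement.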

[1] = dose: 100.0 mg/kg/injection, schedule: Q04DX003 (ip), vehicle: Klucel (hydroxypropylcellulose) (HPC)
[2] = dose: 200.0 mg/kg/injection, schedule: Q04DX003 (ip), vehicle: Klucel (hydroxypropylcellulose) (HPC)
[3] = dose: 400.0 mg/kg/injection, schedule: Q04DX003 (ip), vehicle: Klucel (hydroxypropylcellulose) (HPC)
[4] = dose: 100.0 mg/kg/injection, schedule: Q01DX001 (ip), vehicle: saline
[5] = dose: 200.0 mg/kg/injection, schedule: Q01DX001 (ip), vehicle: saline
[6] = dose: 400.0 mg/kg/injection, schedule: Q01DX001 (ip), vehicle: saline

Measured: T/C

COc1ccc(N2C(=O)C3C(C2=O)C2(Cl)C(Cl)=C(Cl)C3(Cl)C2(Cl)Cl)c(OC)c1 (centres undefined)
inactive: dose: 100.0 mg/kg/injection, schedule: Q01DX009 (ip), vehicle: Klucel (hydroxypropylcellulose) (HPC) 90 % of control | [1] 101 % of control | dose: 200.0 mg/kg/injection, schedule: Q01DX009 (ip), vehicle: Klucel (hydroxypropylcellulose) (HPC) 95 % of control | [2] 104 % of control | dose: 400.0 mg/kg/injection, schedule: Q01DX009 (ip), vehicle: Klucel (hydroxypropylcellulose) (HPC) 93 % of control | [3] 92 % of control

CC(=O)c1ccc(Oc2ccc([N+](=O)[O-])cc2)cc1
inactive: [1] 98 % of control | [2] 96 % of control | [3] 101 % of control

CN=C(NC)c1cccc(NC(=O)c2cccc(C(=O)Nc3cccc(C(=NC)NC)c3)c2)c1
inactive: dose: 4.4 mg/kg/injection, schedule: Q01DX Z (ip), vehicle: carboxymethylcellulose (CMC) 96 % of control | dose: 6.6 mg/kg/injection, schedule: Q01DX Z (ip), vehicle: carboxymethylcellulose (CMC) 98 % of control | dose: 10.0 mg/kg/injection, schedule: Q01DX Z (ip), vehicle: carboxymethylcellulose (CMC) 96 % of control | dose: 15.0 mg/kg/injection, schedule: Q01DX Z (ip), vehicle: carboxymethylcellulose (CMC) 93 % of control and 98 % of control | dose: 22.0 mg/kg/injection, schedule: Q01DX Z (ip), vehicle: carboxymethylcellulose (CMC) 94 % of control

O=C(C1=CN(CC(O)c2ccccc2)CCC1)c1cc2ccccc2n1S(=O)(=O)c1ccccc1 (centres undefined)
inactive: dose: 100.0 mg/kg/injection, schedule: Q04DX002 (ip), vehicle: saline with Tween-80 97 % of control | dose: 200.0 mg/kg/injection, schedule: Q04DX002 (ip), vehicle: saline with Tween-80 94 % of control | dose: 400.0 mg/kg/injection, schedule: Q04DX002 (ip), vehicle: saline with Tween-80 94 % of control

OCCOCC(F)(F)F
inactive: [4] 97 % of control | [5] 100 % of control | [6] 105 % of control | dose: 400.0 mg/kg/injection, schedule: Q01DX015 (ip), vehicle: saline 96 % of control | dose: 800.0 mg/kg/injection, schedule: Q01DX001 (ip), vehicle: saline 105 % of control | dose: 800.0 mg/kg/injection, schedule: Q01DX015 (ip), vehicle: saline 101 % of control | dose: 1600.0 mg/kg/injection, schedule: Q01DX001 (ip), vehicle: saline 108 % of control

Cc1cc(N)c(C(=O)NN)cc1C
inactive: [4] 96 % of control | [5] 93 % of control | [6] 113 % of control

O=[N+]([O-])c1cc(CN2CCCCC2)c(O)c2cccnc12
inactive: dose: 75.0 mg/kg/injection, schedule: Q01DX001 (ip), vehicle: saline 101 % of control | dose: 150.0 mg/kg/injection, schedule: Q01DX001 (ip), vehicle: saline 106 % of control | dose: 300.0 mg/kg/injection, schedule: Q01DX001 (ip), vehicle: saline 101 % of control

C/C(=C\c1ccc(O)cc1)[N+](=O)[O-]
inactive: dose: 50.0 mg/kg/injection, schedule: Q01DX009 (ip), vehicle: alcohol 104 % of control | dose: 100.0 mg/kg/injection, schedule: Q01DX009 (ip), vehicle: alcohol 105 % of control | dose: 100.0 mg/kg/injection, schedule: Q04DX003 (ip), vehicle: acetone 96 % of control | dose: 200.0 mg/kg/injection, schedule: Q01DX009 (ip), vehicle: alcohol 91 % of control | dose: 200.0 mg/kg/injection, schedule: Q04DX003 (ip), vehicle: acetone 105 % of control

Cc1ccc(Cl)c([N+](=O)[O-])c1N
inactive: dose: 100.0 mg/kg/injection, schedule: Q01DX009 (ip), vehicle: saline with Tween-80 92 % of control | dose: 100.0 mg/kg/injection, schedule: Q04DX003 (ip), vehicle: saline with Tween-80 106 % of control | dose: 200.0 mg/kg/injection, schedule: Q01DX009 (ip), vehicle: saline with Tween-80 95 % of control | dose: 200.0 mg/kg/injection, schedule: Q04DX003 (ip), vehicle: saline with Tween-80 104 % of control | dose: 400.0 mg/kg/injection, schedule: Q01DX009 (ip), vehicle: saline with Tween-80 108 % of control | dose: 400.0 mg/kg/injection, schedule: Q04DX003 (ip), vehicle: saline with Tween-80 104 % of control

CC(C)(N)CNC(C)(C)CO
inactive: dose: 50.0 mg/kg/injection, schedule: Q01DX009 (ip), vehicle: saline 102 % of control | dose: 100.0 mg/kg/injection, schedule: Q01DX009 (ip), vehicle: saline 102 % of control

COCC/C(COC)=N/N
inactive: dose: 50.0 mg/kg/injection, schedule: Q01DX001 (ip), vehicle: saline 103 % of control | [4] 103 % of control | [5] 122 % of control

O=C(OCc1ccccc1CN1CCCCC1)c1ccc([N+](=O)[O-])cc1
inactive: dose: 25.0 mg/kg/injection, schedule: Q04DX002 (ip), vehicle: Klucel (hydroxypropylcellulose) (HPC) 101 % of control | dose: 50.0 mg/kg/injection, schedule: Q04DX002 (ip), vehicle: Klucel (hydroxypropylcellulose) (HPC) 94 % of control | dose: 100.0 mg/kg/injection, schedule: Q04DX002 (ip), vehicle: Klucel (hydroxypropylcellulose) (HPC) 90 % of control
